Assays:
[1] = Individual serum elimination rate and half-life (linear regression per employee); settings: individual estimate;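 for HL (half-life): half-life in years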
Description: Serum PFAS concentrations were log-transformed. Time was calculated as the elapsed days between supply of clean bottled water and […] blood sampling. We assumed one compartment, first-order elimination kinetics. In this kinetic model, the body is considered as one homogeneous volume in which mixing is instantaneous and from which PFAS could be absorbed, transferred, and eliminated according to the rate of elimination that is proportional to the concentration of PFAS in the body. Two methods were used to estimate serum elimination rate constant (k) and half-life for each PFAS:
Method 2: For estimation of individual k, linear regression was used to derive the slope ( β ) of the logarithm of serum concentrations vs. time for each employee. The negative value of the slope ( −β ) for each individual was equivalent to the individual k, and individual serum elimination half-life was calculated as ln2/k for each PFAS. If β was positive (i.e., PFAS concentrations tended to increase over the five samplings), the half-life was not calculated.

[2] = PFAS levels in serum samples of airport employees (LC/MS/MS)
Text: All 26 employees at the airport were invited for a blood sampling between 11 and 14 September 2018 (i.e., within 11 to 14 d after the termination of contaminated drinking-water exposure). Information on age, home address, employment history, working tasks, and sick leave and vacation days in August and September were collected by questionnaire. In addition, data on the number of glasses of water consumed per day, local fish consumption, and history of blood donation and medication were collected. For female employees, questions about menstruation, pregnancy, and duration of breast-feeding were asked.
The PFAS analysis in serum from the first sampling was immediately performed and personal results were reported to the employees. […] These 17 employees submitted four rounds of blood and first morning urine samples in parallel, at 1-month intervals. In total, there were five rounds of serum sampling (started from September) and four rounds of urine sampling (from October). For modeling of elimination, all samples were reanalyzed in a single batch. We obtained 83 serum samples with a median count of 5 (range: 4–5) samples per employee, and 59 urine samples with median of 4 (range: 1–4) samples per employee. Only one employee provided a single urine sample. The study was approved by the Regional Ethical Review Board in Lund, Sweden. All employees provided written informed consent.
Venous whole blood samples were obtained and were centrifuged for 10 min at 1,500×g at room temperature to isolate the serum on site. The serum samples were collected in 6-mL BD Vacutainer® Plus plastic serum tubes without gel (BD). Urine samples were collected in 13-mL polypropylene screw cap tubes (Sarstedt). Serum and urine samples were frozen at −20°C after sampling and transported to Lund using cold chain logistics. Serum and urine samples were stored at −80°C and −20°C , respectively, before analysis.
The serum samples, QC samples, and chemical blanks were prepared in 96-well plates with 1.5-mL flat-bottom glass vials (Biotech solutions). Serum samples were thawed for 1–2 h and mixed on a vortex shaker for approximately 10 s two times. Once after all samples were thawed and a second time before pipetting the serum to the plate. Before pipetting, the tip was pre-wetted several times, drawing a volume into the tip and dispensing it back into the tube. Sample preparation procedures for serum samples consisted of 25μL serum mixed with 25μL water, 25μL methanol, 25μL isotopically labeled internal standards in 50% acetonitrile (see Table S1), and 100μL acetonitrile. Thereafter, samples were mixed vigorous by shaking for 30 min and centrifuged at 2,600×g for 10 min at room temperature. The supernatant ( 0.2mL ) was transferred to 96-well plates with 0.5-mL conical glass vials (MicroLiter Analytical Supplies) and again centrifuged at 3,000×g for 10 min before analysis. The QC samples and chemical blanks were prepared following the same procedure as the serum samples. The calibration standards were prepared in FBS the same way as the samples, except for the addition of diluted reference standards of all analyzed compounds in 25μL of the methanol solution.
Aliquots of 4μL of the sample were analyzed using LC/MS/MS. For the analysis, a C18 column ( 4μm , 2.1mm i.d.×50mm , Genesis Lightning) was used prior to the injector to filter the mobile phases. The analytical column was an Aquity BEH ( 1.7μm , 2.1mm i.d.×100mm Waters). The mobile phases (A and B) were A: 5 mM ammonium acetate in water:methanol (50:50); and B: methanol. The mobile phase was kept at 0% B for 2.5 min after injection. A gradient was then applied over 11 min to 90% B, where it was then kept for 1.5 min. The column was then conditioned at 0% B for 2 min.

[3] = 1st sampling (September 2018), count 17
[4] = 2nd sampling (October 2018), count 17
[5] = 3rd sampling (November, 2018), count 17
[6] = 4th sampling (December 2018), count 16
[7] = 5th sampling (January 2019), count 16

Perfluoro-2/6-methylheptanesulfonate [2/6m-PFOS]
Elimination rate ([1]; subject 1, 5 samples): −0.2 yearly
Elimination rate ([1]; subject 2, 5 samples): 0.5 yearly
HL (half-life) ([1]; subject 2, 5 samples): 1.3 year
Elimination rate ([1]; subject 3, 5 samples): 0.7 yearly
HL (half-life) ([1]; subject 3, 5 samples): 1.0 year
Elimination rate ([1]; subject 4, 5 samples): 0.0 yearly
Elimination rate ([1]; subject 5, 5 samples): 0.4 yearly
HL (half-life) ([1]; subject 5, 5 samples): 1.6 year
Elimination rate ([1]; subject 6, 4 samples): 0.4 yearly
HL (half-life) ([1]; subject 6, 4 samples): 1.7 year
Elimination rate ([1]; subject 7, 5 samples): 1.1 yearly
HL (half-life) ([1]; subject 7, 5 samples): 0.6 year
Elimination rate ([1]; subject 8, 5 samples): −0.2 yearly
Elimination rate ([1]; subject 9, 5 samples): 0.2 yearly
HL (half-life) ([1]; subject 9, 5 samples): 4.2 year
Elimination rate ([1]; subject 10, 5 samples): −0.007 yearly
Elimination rate ([1]; subject 11, 5 samples): 1.7 yearly
HL (half-life) ([1]; subject 11, 5 samples): 0.4 year
Elimination rate ([1]; subject 12, 5 samples): 1.7 yearly
HL (half-life) ([1]; subject 12, 5 samples): 0.4 year
Elimination rate ([1]; subject 13, 5 samples): 1.0 yearly
HL (half-life) ([1]; subject 13, 5 samples): 0.7 year
Elimination rate ([1]; subject 14, 4 samples): 1.5 yearly
HL (half-life) ([1]; subject 14, 4 samples): 0.5 year
Elimination rate ([1]; subject 15, 5 samples): 1.2 yearly
HL (half-life) ([1]; subject 15, 5 samples): 0.6 year
Elimination rate ([1]; subject 16, 5 samples): −0.1 yearly
Elimination rate ([1]; subject 17, 5 samples): 1.9 yearly
HL (half-life) ([1]; subject 17, 5 samples): 0.4 year
Serum PFAS level, 25 percentile [2, 3]: 1.4
Serum PFAS level, 75 percentile [2, 3]: 3.6
Serum PFAS level, Max [2, 3]: 7.5
Serum PFAS level, Median [2, 3]: 2.6
Serum PFAS level, Min [2, 3]: 1.0
Serum PFAS level, 25 percentile [2, 4]: 1.5
Serum PFAS level, 75 percentile [2, 4]: 2.8
Serum PFAS level, Max [2, 4]: 7.2
Serum PFAS level, Median [2, 4]: 2.2
Serum PFAS level, Min [2, 4]: 0.97
Serum PFAS level, 25 percentile [2, 5]: 1.3
Serum PFAS level, 75 percentile [2, 5]: 3.5
Serum PFAS level, Max [2, 5]: 8.1
Serum PFAS level, Median [2, 5]: 2.3
Serum PFAS level, Min [2, 5]: 0.66
Serum PFAS level, 25 percentile [2, 6]: 0.96
Serum PFAS level, 75 percentile [2, 6]: 2.9
Serum PFAS level, Max [2, 6]: 7.1
Serum PFAS level, Median [2, 6]: 1.9
Serum PFAS level, Min [2, 6]: 0.57
Serum PFAS level, 25 percentile [2, 7]: 1.2
Serum PFAS level, 75 percentile [2, 7]: 2.7
Serum PFAS level, Max [2, 7]: 7.0
Serum PFAS level, Median [2, 7]: 2.1
Serum PFAS level, Min [2, 7]: 0.83
PFAS in first serum sample, median (range) ([2]; employees participated in first blood sampling and repeated blood and urine sampling, N=17): 2.6 (1.0–7.5) ng/mL
PFAS in first serum sample, median (range) ([2]; employees participated in first blood sampling only, N=9, 11-14 d after end of exposure): 1.8 (0.84–3.2) ng/mL
Initial serum PFAS level, max ([2]; females (N=7)): 2.8 ng/mL
Initial serum PFAS level, median ([2]; females (N=7)): 1.4 ng/mL
Initial serum PFAS level, min ([2]; females (N=7)): 1.0 ng/mL
Initial serum PFAS level, Max ([2]; males (N=19)): 7.5 ng/mL
Initial serum PFAS level, Min ([2]; males (N=19)): 0.84 ng/mL
Initial serum PFAS level, median ([2]; males (N=19)): 2.5 ng/mL
Serum level, median (range) ([2]; second to fifth samplings, 17 airport employees): 2.1 (0.57–8.1) ng/mL
